Strand notation (5' to 3'): a small letter for the sugar, then the base; units joined by * are phosphorothioate-linked, units joined directly phosphodiester-linked; [ ] holds rarer units or linkages, { } end groups; capitals alone tell only the bases. k = constrained ethyl (cEt); [5mC] = 5-methylcytosine; d = 2'-deoxy (DNA)

For the first series, the system named is human SMAD7 mRNA. Description: Antisense inhibition of human SMAD7 mRNA expression in Hep3B cells by 3-10-3 cEt gapmers, 10,000 nM, electroporation (Example 2). In kind it is cell-based. As to conditions: Hep3B cells, electroporation with 10,000 nM antisense oligonucleotide, approximately 24 hours, RTS5062, percent inhibition of SMAD7 mRNA relative to untreated control cells. The gist of the method:
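qRT-PCR (RTS5062) of SMAD7 mRNA, normalised to RIBOGREEN total RNA, gave percent inhibition relative to untreated controls. Hep3B cells at 20,000 per well received 10,000 nM oligonucleotide by electroporation, with ~24 h treatment.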
In the case of “799642 (kG*k[5mC]*kA*dA*dA*dT*d[5mC]*d[5mC]*dT*dT*dT*d[5mC]*d[5mC]*kA*kT*k[5mC]; antisense) [compound 799642]”, the “% Inhibition” value is 53%.
For the substance “799643 (kG*kT*kG*dA*dT*d[5mC]*d[5mC]*d[5mC]*d[5mC]*dG*dG*dA*dA*kA*kG*k[5mC]; antisense) [compound 799643]”, the “% Inhibition” value is recorded as 26%.
On to “799644 (kT*kT*k[5mC]*d[5mC]*dA*dA*d[5mC]*dA*d[5mC]*dA*dT*dG*d[5mC]*kT*k[5mC]*kT; antisense) [compound 799644]”, for which the “% Inhibition” value is given as 31%.
Still for that read-out and setting: the result for “799645 (k[5mC]*kA*kA*dA*dG*dA*dT*dG*dA*dT*dA*dG*d[5mC]*kT*kT*k[5mC]; antisense) [compound 799645]” reads 45%; that for “799646 (antisense k[5mC]*kA*kG*dA*dA*dA*d[5mC]*dT*d[5mC]*d[5mC]*dA*dG*dA*kT*kG*kG) [compound 799646]”, 18%; that for “799647 (antisense kA*k[5mC]*kA*dG*dA*dA*dA*d[5mC]*dT*d[5mC]*d[5mC]*dA*dG*kA*kT*kG) [compound 799647]”, 0%.
With “799648 (antisense kA*kT*kG*dA*dA*dA*dG*d[5mC]*d[5mC]*d[5mC]*d[5mC]*d[5mC]*dA*kG*kA*k[5mC]) [compound 799648]”, the “% Inhibition” value is on record as 9%.
As to “799649 (antisense kA*kA*kA*dT*dG*dA*dA*dA*dG*d[5mC]*d[5mC]*d[5mC]*d[5mC]*k[5mC]*kA*kG) [compound 799649]”, the “% Inhibition” value is given as 53%.
For “799650 (antisense k[5mC]*kA*kG*d[5mC]*dA*dG*dA*d[5mC]*dA*dG*dG*d[5mC]*dA*kA*kA*kA) [compound 799650]”, the “% Inhibition” value was 46%.
For “799651 (antisense kA*kG*kG*dA*d[5mC]*dA*dG*d[5mC]*dA*dG*dA*d[5mC]*dA*kG*kG*k[5mC]) [compound 799651]”, the “% Inhibition” value stood at 55%.
On the same count and under the same terms, the figure for “799662 (antisense k[5mC]*kG*kT*dG*dA*dG*d[5mC]*dA*d[5mC]*dT*dT*d[5mC]*dT*kG*kT*k[5mC]) [compound 799662]” is 55%; for “799664 (antisense kG*k[5mC]*k[5mC]*dA*dG*d[5mC]*dA*dA*dG*dG*dA*dT*d[5mC]*kA*kA*kA) [compound 799664]” it is 8%; for “799665 (antisense kG*kA*kT*dG*d[5mC]*d[5mC]*dA*dG*d[5mC]*dA*dA*dG*dG*kA*kT*k[5mC]) [compound 799665]” it is 57%.
Same read-out and setting: the result for “799666 (antisense k[5mC]*kA*kG*dA*dT*dG*d[5mC]*d[5mC]*dA*dG*d[5mC]*dA*dA*kG*kG*kA) [compound 799666]” reads 51%; that for “799670 (antisense kT*k[5mC]*kT*dG*dA*dG*dA*d[5mC]*dT*dA*dT*dG*dA*k[5mC]*kA*kG) [compound 799670]”, 51%; that for “799682 (antisense kG*kG*kT*d[5mC]*d[5mC]*dA*dG*dG*dA*d[5mC]*dT*dG*dG*kT*k[5mC]*kT) [compound 799682]”, 55%.
“799683 (antisense k[5mC]*kT*kG*d[5mC]*dA*dG*dA*dA*dG*dA*dG*dG*d[5mC]*kG*kG*kG) [compound 799683]”: the “% Inhibition” value came to 32%.
With “799684 (antisense kA*kA*kT*dG*d[5mC]*dT*dG*dT*d[5mC]*dA*d[5mC]*d[5mC]*d[5mC]*kT*kG*kT) [compound 799684]”, the “% Inhibition” value was determined as 52%.
For the substance “799685 (antisense kG*kA*kT*dT*dT*dT*dA*dA*dA*dT*dG*d[5mC]*dT*kG*kT*k[5mC]) [compound 799685]”, the “% Inhibition” value is listed as 25%.
Turning to “799687 (antisense kG*kG*k[5mC]*dA*dG*d[5mC]*dA*dG*dA*d[5mC]*d[5mC]*dA*dT*k[5mC]*kT*kT) [compound 799687]”, the “% Inhibition” value was found to be 35%.
“799688 (antisense k[5mC]*kA*k[5mC]*d[5mC]*dA*d[5mC]*d[5mC]*d[5mC]*dA*dA*dA*dG*d[5mC]*k[5mC]*kT*kG) [compound 799688]”: the “% Inhibition” value is on record as 50%.
Still for that read-out and setting: the figure for “799690 (antisense kA*kG*k[5mC]*dT*dA*d[5mC]*dA*dG*dT*d[5mC]*dA*dG*dG*k[5mC]*kT*kT) [compound 799690]” is 51%.
Regarding “799691 (antisense kT*k[5mC]*k[5mC]*d[5mC]*dA*dT*dA*dG*dG*dT*dG*dT*dA*k[5mC]*kA*kA) [compound 799691]”, the “% Inhibition” value was 49%.

Staying with this series, now noted: Hep3B cells, electroporation, 10,000 nM antisense oligonucleotide, approximately 24 hours, RTS5062, relative to untreated control cells.
Take “799639 (k[5mC]*k[5mC]*kA*dG*dA*dG*dA*dG*dT*d[5mC]*dA*dG*dG*k[5mC]*kA*k[5mC]; antisense) [compound 799639]”: the “% inhibition of SMAD7 mRNA expression” value worked out at 34%.
The same measure, in the same setting: the figure for “799640 (k[5mC]*kA*kA*dG*dG*dA*d[5mC]*d[5mC]*dT*dG*dT*dT*d[5mC]*kT*kG*kG; antisense) [compound 799640]” is 40%; for “799641 (k[5mC]*kA*kT*d[5mC]*dA*dG*dA*d[5mC]*d[5mC]*dT*d[5mC]*dT*d[5mC]*k[5mC]*k[5mC]*kA; antisense) [compound 799641]” it is 33%; for “799652 (antisense kA*k[5mC]*kT*d[5mC]*dA*dA*dA*d[5mC]*d[5mC]*dA*dG*dG*dA*k[5mC]*kA*kG) [compound 799652]” it is 0%.
On to “799653 (antisense kA*k[5mC]*k[5mC]*d[5mC]*dA*d[5mC]*dT*d[5mC]*dA*dA*dA*d[5mC]*d[5mC]*kA*kG*kG) [compound 799653]”, for which the “% inhibition of SMAD7 mRNA expression” value is given as 51%.
Consider “799654 (antisense kG*k[5mC]*kT*dG*dA*dA*dT*dA*dA*d[5mC]*d[5mC]*dT*dA*k[5mC]*kA*kA) [compound 799654]”, for which the “% inhibition of SMAD7 mRNA expression” value came out at 22%.
Regarding “799655 (antisense kT*kG*k[5mC]*dA*dG*d[5mC]*dT*dG*dA*dA*dT*dA*dA*k[5mC]*k[5mC]*kT) [compound 799655]”, the “% inhibition of SMAD7 mRNA expression” value is 47%.
Regarding “799656 (antisense k[5mC]*kT*kA*dA*d[5mC]*dT*dG*dG*dG*d[5mC]*dA*dG*dG*kT*k[5mC]*k[5mC]) [compound 799656]”, the “% inhibition of SMAD7 mRNA expression” value was found to be 60%.
As to “799657 (antisense kT*kA*k[5mC]*dA*dA*dG*dT*dG*dG*dT*dT*dG*d[5mC]*kT*kG*kG) [compound 799657]”, the “% inhibition of SMAD7 mRNA expression” value is recorded as 62%.
On to “799658 (antisense kA*kA*k[5mC]*dT*dA*d[5mC]*dA*dA*dG*dT*dG*dG*dT*kT*kG*k[5mC]) [compound 799658]”, for which the “% inhibition of SMAD7 mRNA expression” value was determined as 22%.
As to “799659 (antisense kA*kA*kA*dT*dA*dA*d[5mC]*dT*dA*d[5mC]*dA*dA*dG*kT*kG*kG) [compound 799659]”, the “% inhibition of SMAD7 mRNA expression” value is 57%.
The same measure, in the same setting: the figure for “799660 (antisense kT*kG*kG*dG*dA*dG*d[5mC]*dA*d[5mC]*dT*dT*d[5mC]*dT*kT*kT*kT) [compound 799660]” is 35%; for “799661 (antisense k[5mC]*kT*k[5mC]*d[5mC]*dA*d[5mC]*dT*dG*d[5mC]*d[5mC]*dT*d[5mC]*d[5mC]*kT*kA*k[5mC]) [compound 799661]” it is 44%; for “799672 (antisense kA*k[5mC]*kA*dG*dG*dA*dT*dG*dG*dA*dG*d[5mC]*dA*kA*kT*kG) [compound 799672]” it is 41%.
Take “799675 (antisense kT*k[5mC]*k[5mC]*d[5mC]*dA*dG*dT*dT*d[5mC]*dA*dT*dG*dA*kT*k[5mC]*kA) [compound 799675]”: the “% inhibition of SMAD7 mRNA expression” value worked out at 0%.
The same measure, in the same setting: the figure for “799676 (antisense kG*kA*kA*dA*d[5mC]*d[5mC]*dA*dT*dG*dA*dG*d[5mC]*dT*kG*kT*kT) [compound 799676]” is 64%.
Turning to “799677 (antisense kG*k[5mC]*kT*d[5mC]*dA*dT*dG*dA*dG*d[5mC]*dA*dT*dT*kT*kG*kG) [compound 799677]”, the “% inhibition of SMAD7 mRNA expression” value turned out to be 68%.
On the same count and under the same terms, the figure for “799678 (antisense k[5mC]*kA*k[5mC]*dA*dA*dG*d[5mC]*dA*d[5mC]*d[5mC]*dT*dG*dT*k[5mC]*k[5mC]*kA) [compound 799678]” is 0%; for “799679 (antisense k[5mC]*kT*kG*d[5mC]*dA*dG*dG*dG*dT*dA*d[5mC]*dT*dA*kA*kG*kG) [compound 799679]” it is 0%.
In the case of “799680 (antisense kG*kA*kG*dT*dT*d[5mC]*dT*dA*dG*dG*d[5mC]*d[5mC]*dG*kT*k[5mC]*kA) [compound 799680]”, the “% inhibition of SMAD7 mRNA expression” value is recorded as 33%.
On the same count and under the same terms, the figure for “799681 (antisense kA*k[5mC]*kT*d[5mC]*dA*dT*d[5mC]*d[5mC]*dT*dG*dT*dT*dG*kG*k[5mC]*kA) [compound 799681]” is 53%.
Take “799692 (antisense kA*k[5mC]*kA*d[5mC]*dA*dG*dT*dA*dA*d[5mC]*dA*dA*d[5mC]*kA*kA*kT) [compound 799692]”: the “% inhibition of SMAD7 mRNA expression” value stood at 0%.
In the case of “799693 (antisense kT*kT*kA*dT*dG*dA*d[5mC]*dA*d[5mC]*dA*dG*dT*dA*kA*k[5mC]*kA) [compound 799693]”, the “% inhibition of SMAD7 mRNA expression” value was determined as 17%.
For “799694 (antisense kA*kA*kG*dG*dA*dA*dT*dT*dA*dT*dG*dA*d[5mC]*kA*k[5mC]*kA) [compound 799694]”, the “% inhibition of SMAD7 mRNA expression” value is on record as 7%.
For “799695 (antisense k[5mC]*k[5mC]*kA*dG*dG*dA*dA*d[5mC]*d[5mC]*dA*dG*d[5mC]*dA*k[5mC]*kT*kT) [compound 799695]”, the “% inhibition of SMAD7 mRNA expression” value was 6%.
On to “799696 (antisense kA*kA*kG*dT*dT*dA*dT*d[5mC]*dT*dG*dG*dG*dA*kA*kG*k[5mC]) [compound 799696]”, for which the “% inhibition of SMAD7 mRNA expression” value is 43%.

Values taken from patent publication US10517889B2, “Modulators of SMAD7 expression” (Ionis Pharmaceuticals, Inc., priority 2017, dated 2019).
